Legend:
[1] = target: T1, γ-secretase (Homo sapiens, UniProt P49768); details: displacement assay; cited from earlier work
[2] = test system: EAE; details: Sanna et al. 2006; cited from earlier work
[3] = test system: MS patients; details: some, but not all, onsets approximately six months following the onset of therapy; cited from earlier work
[4] = test system: EAE animals; experiment: LY411575 injected into EAE animals; assay type: in vivo
Method: When LY411575 was injected into EAE animals, the severity of EAE was decreased.

[5] = test system: EAE; details: injected prior to disease onset; Minter et al. 2005; cited from earlier work
[6] = test system: CD4+ T cells; experiment: cell-culture assay of T cell proliferation and Th1 differentiation; assay type: cell-based
[7] = test system: T cells; details: Minter et al. 2005; cited from earlier work
[8] = target: T1, γ-secretase; details: recombinant APP C100 substrate; Takahashi et al. 2003; cited from earlier work
[9] = test system: aged rats; details: total dose infused i.v.=1 ug, Fischer et al. 1987; cited from earlier work

C[C@H](NC(=O)Cc1cc(F)cc(F)c1)C(=O)N[C@H](C(=O)OC(C)(C)C)c1ccccc1 [DAPT]
competition for the γ-secretase active site [1]: compete moderately

glatiramer acetate [GA]
progression of EAE [2]: block progression
clinical relapses [3]: modest reduction

C[C@H](NC(=O)[C@@H](O)c1cc(F)cc(F)c1)C(=O)N[C@@H]1C(=O)N(C)c2ccccc2-c2ccccc21 [LY411575]
severity of EAE [4]: decreased
severity of EAE [5]: lessened
amount of T cell differentiation of the inflammatory Th1 subset of CD4+ T cells [6]: decreased
effect on T cell proliferation [6]: no observed effect
Th1 differentiation in vitro [7]: decreased
effect on T cell proliferation [7]: no effect

CSc1ccc(/C=C2/C(C)=C(CC(=O)O)c3cc(F)ccc32)cc1 [sulindac sulfide]
γ-secretase activity [8]: preferentially inhibits

NGF: nerve growth factor
cholinergic neuron atrophy and spatial memory impairment [9]: ameliorate

Source: US20080233132A1, “MULTIPLE SCLEROSIS THERAPY” (priority 2006, published 2008)
